# Experimental data reported in patent US20190133980A1, “Compositions and methods for targeting and treating homologous recombination-deficient tumors” (YALE UNIVERSITY, priority 2016, published 2019).
# What was measured:
# [1] = tested on: wild-type and IDH1-R132H heterozygous HCT116 cells; experiment: Short-term growth delay assay, HCT116; type: cell-based, Human
# Experimental: (§1) Cells were plated in 96-well black-walled plates (Costar) at a concentration of 2.5 k/well and allowed to adhere at room temperature for 60 minutes prior to return to the incubator. For growth delay assays containing octyl-(R)-2HG, cells were cultured with indicated concentration for 10 days prior to plating. 24 hours later, the media was changed and indicated drugs dissolved in either DMSO or DMF (cisplatin only) were added in quadruplicate at varying concentrations. For synergy experiments, cells were replica-plated and drugs added in single wells at the indicated concentrations. At 96 hours after the addition of drugs, cells were washed in PBS, fixed in 70% ethanol, and stained with Hochst at 1 μg/mL. The plates were then imaged on a Cytation 3 automated imager (BioTek), and cells were counted using CellProfiler (cellprofiler.org/). Each experiment was performed three times and values from a representative experiment are reported as mean±SEM. For synergy experiments, experiments were analyzed for synergistic interactions using Combenefit (www.cruk.cam.ac.uk/research-groups/jodrell-group/combenefit).
# [2] = tested on: homologous recombination (HR) in U2OS DR-GFP cells; experiment: U2OS DR-GFP chromosomal HR reporter assay; type: cell-based; conditions: for suppression of HR: after 10 days of culture in 300 μM octyl-(R)-2-hydroxyglutarate vs DMSO
# Experimental: These reporter assays are carried out as previously described ([…] et al., Molecular cancer research: MCR 13, 1389-1397 (2015)). Briefly, after 10 days of culture in (2R)-Octyl-alpha-hydroxyglutarate (Cayman), 1×10^6 cells were transfected in triplicate with 4 μg pI-SceI using the Amaxa Nucleofector II and Nucleofection Kit V (Lonza) per manufacturer's protocol. 72 h after transfection, cells were analyzed for GFP expression using flow cytometry, and the data was analyzed using FlowJo software to calculate %GFP positive cells. Values reported are mean±SEM.
# [3] = tested on: wild-type or IDH1-R132H heterozygous HCT116 cells; experiment: Long-term colony forming assay, HCT116; type: cell-based, Human; conditions: FIG. 5E; at 10 nM BMN-673
# Experimental: (§2) Cells were counted and diluted in media containing various concentration of drug. They were then immediately seeded in 6-well plates in triplicate at 3-fold dilutions, ranging from 9000 to 37 cells per well. These plates were kept in the incubator for 10 to 14 days, following which they were washed in PBS, stained with Crystal Violet, and quantified. Each experiment was performed twice, and values reported are mean ±standard deviation.
# [4] = tested on: wild-type or IDH1-R132H heterozygous astrocytes; experiment: Long-term colony forming (clonogenic survival) assay, astrocytes; type: cell-based, Human; conditions: FIG. 2B
# Experimental: as §2
# [5] = tested on: HCT116 IDH1-WT and -mutant tumors; experiment: In vivo BMN 673 efficacy study, subcutaneous flank xenografts; set-up: species or system nude mice; conditions: BMN-673 0.33 mg/kg oral gavage once daily for 21 days vs vehicle
# Experimental: All animal experiments were performed in compliance with our institution's IACUC committee. Four week-old female athymic nu/nu mice were used for all in vivo xenograft studies. Mice were quarantined for at least 1 week before experimental manipulation. Human HCT116 cells (with and without IDH1 mutation) were implanted subcutaneously (3-5×10^6 cells in 0.1 cc PBS) in the right flank of nude mice. When tumors reached an average volume of approximately 100 mm^3, mice were randomized into various treatment groups (5-7 mice/group) in each study. Animals were not randomized, but were grouped based on tumor size such that tumors were roughly equivalent in size when treatment was begun. The investigator was not blinded throughout the experiment. Mice were visually observed daily and tumors were measured three times per week by calipers to determine tumor volume using the formula: […]
# BMN 673 was solubilized in DMSO and diluted with PBS containing 10% dimethylacetamide (Sigma-Aldrich) and 6% Solutol (Sigma-Aldrich). […] Tumor tripling time was calculated as the time required for tumors to increase in volume threefold over baseline at the time of treatment initiation. P-values were determined by Mann-Whitney U test (Stata). Kaplan-Meier curves were generated with survival fraction determined by the number of mice alive with tumor volume smaller than three times the initial pre-treatment volume. […]
# [6] = tested on: wild-type or IDH1-R132H heterozygous astrocytes; experiment: Short-term growth delay assay, astrocytes; type: cell-based, Human; conditions: for sensitization of IDH1-mutant versus WT cells to single DNA damaging agent: FIG. 6A, single agents
# Experimental: as §1, with “For growth delay assays containing octyl-(R)-2HG, cells were cultured with indicated concentration for 10 days prior to plating. 24 hours later, the media was changed and indicated drugs dissolved in either DMSO or DMF (cisplatin only) were added in quadruplicate at varying concentrations.” left out
# [7] = tested on: IDH1-WT U2OS DR-GFP cells; experiment: Neutral comet assay, U2OS; type: cell-based; conditions: 24 h exposure to DMOG
# Experimental: (§3) Neutral comet assays were performed per manufacturer's protocol (Trevigen). Briefly, cells were trypsinized, washed with PBS and suspended in LM Agarose (Trevigen). Neutral electrophosesis was conducted at 21V for 1 hour in the CometAssay Electrophoresis System (Trevigen). Data were collected with an EVOS FL microscope (Advanced Microscopy Group) and analyzed using AutoComet software (TriTek Corporation). For each experiment, three biological replicates each with >50 cells were measured, and reported values are mean±SEM.
# [8] = tested on: WT and R132H/+ HCT116 cells; experiment: Neutral comet assay, HCT116; type: cell-based, Human
# Experimental: as §3
compound,measurement,setting,value
"O=C(O)CCC(O)C(=O)O (stereo not drawn) [2-HG, 2-hydroxyglutarate]",PARP inhibitor (BMN-673) sensitivity of WT cells after 2-HG treatment,"[1]; FIGS. 2C-2D, wild-type HCT116, octyl-(R)-2HG with 300 nM BMN-673, or 900 μM octyl-(R)-2HG with BMN-673 dose response",recapitulate the enhanced PARP inhibitor sensitivity seen in IDH1-mutant cells
same,ability of treatment alone to reproduce the IDH1-associated HR defect,"[2]; FIG. 1I, FIGS. 3H-3I, wild-type cells",recapitulate the IDH1-associated HR defect
same,suppression of HR,[2]; FIG. 1I,"dramatic, and it approached levels seen with siRNAs targeting two key HR genes, RAD51 and BRCA2"
Cn1ncnc1[C@H]1c2n[nH]c(=O)c3cc(F)cc(c23)N[C@@H]1c1ccc(F)cc1 [BMN-673],difference in cell viability between wild-type and IDH1-R132H heterozygous HCT116,[3],roughly ten-fold difference in cell viability
same,difference in IC50 between wild-type and IDH1-R132H heterozygous HCT116,[1]; FIG. 5D,nearly eight-fold difference in IC50
same,increase in sensitivity of IDH1-R132H versus wild-type astrocytes,[4]; at 10 nM BMN-673,ten-fold increase in sensitivity
same,decrease in cell survival of IDH1-mutant compared to WT cells,"[4]; clonogenic survival, dose of 10 nM",10 fold
same,tumor growth in IDH1-WT tumors,[5]; HCT116 IDH1-WT xenografts,minimal effects
same,tumor growth in IDH1-mutant tumors,[5]; HCT116 IDH1-mutant xenografts,significant growth delay
same,decrease in IC50 in R132H mutants versus wild-type,"[6]; FIG. 2A, BMN-673 dose response, 96 hours after addition of drug",four-fold decrease in IC50
"COC(=O)CNC(=O)C(=O)OC [DMOG, dimethyloxalylglycine]",baseline DSBs,[7],dose dependent increase in baseline DSBs
same,HR activity,[2]; 24 h pretreatment with DMOG,dose dependent HR suppression
"COS(C)(=O)=O [MMS, Methyl methanesulfonate]",sensitization of IDH1-mutant versus WT cells to single DNA damaging agent,[6],"modest, but detectable sensitization"
O=[N+]([O-])c1cc([N+](=O)[O-])c(/C=C/c2ccc(Cl)c(Cl)c2)cc1/C=C/c1ccc(Cl)c(Cl)c1 [NSC-636819],doses at which the increase in DSBs was observed,[8]; HCT116 IDH-WT cells,12.5 to 50 µM
same,DSBs (comet tail moment) in HCT116 IDH-WT cells,"[8]; NSC-636819 treatment, HCT116 IDH-WT","dose-dependent increase in elevated DSBs, which approached the levels seen in untreated HCT116 IDH-mutant cells"
same,comet tail moments in HCT116 IDH-mutant cells,"[8]; NSC-636819 treatment, HCT116 IDH-mutant",did not further increase comet tail moments
N.N.[Cl][Pt][Cl] [cisplatin],synergy between BMN-673 and cisplatin,"[6]; FIG. 2F, 8 nM BMN-673 and 1 cisplatin, IDH1 wild-type vs IDH1-R132H astrocytes",IDH1-R132H-dependent synergy
same,sensitization of IDH1-mutant versus WT cells to single DNA damaging agent,[6],"modest, but detectable sensitization"
same,synergistic interaction with BMN-673 in IDH1-mutant tumor cells,"[6]; FIGS. 2E-F, 6B (cisplatin, astrocytes), FIG. 6C (TMZ, IDH1-R132H HCT116), Combenefit analysis",dramatic synergistic interaction
CCc1c2c(nc3ccc(OC(=O)N4CCC(N5CCCCC5)CC4)cc13)-c1cc3c(c(=O)n1C2)COC(=O)[C@]3(O)CC [irinotecan],sensitization of IDH1-mutant versus WT cells to single DNA damaging agent,[6],"modest, but detectable sensitization"
(2R)-octyl-α-hydroxyglutarate [octyl-(R)-2-hydroxyglutarate],suppression of HR,[2]; FIG. 1I,comparable in magnitude to RAD51 or BRCA2 suppression by siRNA knockdown
